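A five-concentration, 48-hour dose response in 96-well plates underlies each endpoint, interpolated linearly between surrounding concentrations. Here, GI50 denotes the concentration required for 50% inhibition of growth. The concentration for full growth arrest is given as TGI.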
Experiments:
Assay in all cases: growth of human tumour cells (NCI), 48 h
786-0 renal = system: 786-0 renal
HCT-116 colon = system: HCT-116 colon
HCT-15 colon = system: HCT-15 colon
KM12 colon = system: KM12 colon
LOX IMVI melanoma = system: LOX IMVI melanoma
M14 melanoma = system: M14 melanoma
NCI-H23 lung = system: NCI-H23 lung
OVCAR-8 ovarian = system: OVCAR-8 ovarian
SN12C renal = system: SN12C renal
SW-620 colon = system: SW-620 colon

SMILES	TGI (786-0 renal)	TGI (HCT-116 colon)	TGI (HCT-15 colon)	TGI (KM12 colon)	TGI (LOX IMVI melanoma)	TGI (M14 melanoma)	TGI (NCI-H23 lung)	TGI (OVCAR-8 ovarian)	TGI (SN12C renal)	TGI (SW-620 colon)	GI50 (786-0 renal)	GI50 (HCT-116 colon)	GI50 (HCT-15 colon)	GI50 (KM12 colon)	GI50 (LOX IMVI melanoma)	GI50 (M14 melanoma)	GI50 (NCI-H23 lung)	GI50 (OVCAR-8 ovarian)	GI50 (SN12C renal)	GI50 (SW-620 colon)
CN(C)CCNc1nc(-c2cccs2)cc(-c2cccs2)n1	30.4 µM	23.4 µM	33.2 µM	28.5 µM	22.7 µM	27 µM	25.7 µM	21.7 µM	27.4 µM	29.1 µM										
Nc1ccc(C(=O)N/C(=C\c2cccc([N+](=O)[O-])c2)c2nc3c4c(ccc3[nH]2)C(=O)c2ccccc2C4=O)cc1	> 100 µM	> 100 µM	> 100 µM		> 100 µM	> 100 µM	> 100 µM	> 100 µM	> 100 µM	> 100 µM										
Oc1c(CN2CCOCC2)cc(COCc2ccccc2)c2cccnc12	19.2 µM	> 100 µM	13.3 µM	> 100 µM	10.4 µM	7.84 µM	> 100 µM	> 100 µM	> 100 µM	> 100 µM	2.67 µM	2.82 µM	0.286 µM	3.73 µM	1.19 µM	1.59 µM	3.25 µM	2.8 µM	5.29 µM	3.61 µM
O=c1c2c3c(sc2n2c(-c4ccc(Br)cc4)nnc2n1Cc1ccccc1)CCCC3	14.6 µM	22.7 µM	17.8 µM	24.7 µM	22.3 µM		31.3 µM	37 µM	23.4 µM	26.3 µM	3.96 µM	9.56 µM	4.39 µM	10.2 µM	10.5 µM		12.4 µM	15.5 µM	8.01 µM	13.1 µM
COc1ccc2c(c1)OCCC1=C2SCC2(C)CCN=C12 (stereo unspecified)	> 100 µM	> 100 µM		> 100 µM	> 100 µM	> 100 µM	> 100 µM	> 100 µM	> 100 µM	> 100 µM										
Cc1cc(O)c(C(c2ccncc2)c2c(O)cc(C)[nH]c2=O)c(=O)[nH]1	> 100 µM	> 100 µM	> 100 µM	> 100 µM	> 100 µM	> 100 µM	> 100 µM	> 100 µM	> 100 µM											
N#Cc1cccc(OCc2ccccc2COc2cccc(C#N)c2)c1	27.7 µM	93.3 µM	> 100 µM			> 100 µM	> 100 µM	> 100 µM	73.1 µM	> 100 µM	12.3 µM	22 µM	> 100 µM			43.9 µM	36.7 µM	55.9 µM	19 µM	> 100 µM
COc1ccc2nc3cccc(C(=O)NCCN(C)C)c3nc2c1	> 22.2 µM	2.6 µM	6.15 µM	9.82 µM	2.45 µM		3.41 µM		4.93 µM											
COc1cc(/C=N\O)nc(-c2ccccn2)c1	> 100 µM	> 100 µM	> 100 µM	> 100 µM	> 100 µM	> 45 µM	> 100 µM			> 100 µM										
Nc1c(-c2nc3ccccc3[nH]2)sc(=S)n1-c1ccc(Cl)cc1	36.7 µM		61.8 µM	78.3 µM	50.5 µM	82.7 µM	81.8 µM	54.5 µM	50.1 µM	> 100 µM										
Nc1nc(N)c(-c2ccccc2)c(CCC(=O)Nc2ccc(Cl)cc2)n1	> 100 µM	> 100 µM	> 100 µM	> 100 µM		> 100 µM	> 100 µM	> 100 µM	> 100 µM	> 100 µM										
CCOC(=O)/N=c1/nc(N(C)C)ss1	> 100 µM	> 100 µM	> 100 µM	> 100 µM		> 100 µM	> 100 µM	> 100 µM	> 100 µM	> 100 µM										
Cn1ncc(-c2ccc3c(=O)[nH]nc(CN)c3c2)c1-c1c(F)cc2ccccc2c1C#N	18.9 µM	14.5 µM	19.1 µM	17.4 µM	4.11 µM	21.1 µM		17.5 µM	20.8 µM	15.1 µM	5.21 µM	3.69 µM	4.92 µM	5 µM	1.32 µM	6.97 µM		4.34 µM	7.53 µM	3.05 µM
C#CCN(Cc1nc2cc(C(F)(F)F)ccc2nc1-c1ccccc1)c1ccc(F)c(F)c1	> 100 µM	> 100 µM	> 100 µM		> 100 µM	> 100 µM	> 100 µM	> 100 µM	> 100 µM	> 100 µM	> 100 µM	38 µM	37.4 µM		42 µM	> 100 µM	94.3 µM	31.6 µM	46.2 µM	36 µM
Cn1ccnc1C[N-]Cc1nccn1C.O=[N+]([O-])[O-].O=[N+]([O-])[O-].[Cu+2]	> 100 µM	> 100 µM		> 100 µM	> 100 µM	> 100 µM	> 100 µM	> 100 µM	> 100 µM	> 100 µM	> 100 µM	> 100 µM		> 100 µM	> 100 µM	> 100 µM	> 100 µM	> 100 µM	> 100 µM	> 100 µM
CCOC(=O)/C(C#N)=C/Nc1ccc(-c2nc3ccccc3[nH]2)cc1	64.7 µM	> 100 µM	> 100 µM	44.1 µM	41.5 µM	> 100 µM		> 100 µM	55.6 µM	> 100 µM	27.2 µM	> 100 µM	34.1 µM	16.1 µM	19.4 µM	62.3 µM		> 100 µM	19.5 µM	54.1 µM
CC(C)(C)OC(=O)N1N=NC2C3OC(CC3=O)C21 (stereo unspecified)	> 100 µM	> 100 µM	> 100 µM		> 100 µM	> 100 µM	> 100 µM	> 100 µM	> 100 µM	> 100 µM										
CCCn1c(N)c(C(=O)CNc2ccc(I)cc2)c(=O)[nH]c1=O	> 100 µM	> 100 µM	> 100 µM		> 100 µM	> 100 µM	> 100 µM	> 100 µM	> 100 µM	> 100 µM	4.21 µM	0.677 µM	0.264 µM		0.653 µM	> 100 µM	> 61.4 µM	4.72 µM	29.2 µM	2.89 µM
Cc1ncc([N+](=O)[O-])n1CCNC(=O)CCCCCn1ccnc1[N+](=O)[O-]	> 100 µM	> 100 µM	> 100 µM	> 100 µM		> 100 µM	> 100 µM	> 100 µM	> 100 µM	> 100 µM										
COC(=O)Cc1nc2ccccc2o1	> 100 µM	> 100 µM	> 100 µM	> 100 µM		> 100 µM	> 100 µM	> 100 µM	> 100 µM	> 100 µM										
CCCCOc1ccc(/C=N/Nc2cc(C)nc3ccc(Cl)cc23)cc1	3.76 µM	4.85 µM	2.74 µM	3.87 µM	3.09 µM	3.91 µM	3.42 µM	3.46 µM	3.08 µM		2 µM	2.13 µM	1.35 µM	1.93 µM	1.69 µM	1.89 µM	1.77 µM	1.78 µM	1.63 µM	
COc1cc(-c2nn(-c3ccc(NC(=O)c4cc(Cl)cc(Cl)c4)cc3)cc2-c2ccncc2)ccc1Cl	7.66 µM	> 100 µM		> 100 µM	> 100 µM	> 100 µM	> 100 µM	> 100 µM	> 100 µM	> 100 µM	1.97 µM	16.3 µM		3.27 µM	3.09 µM	7.39 µM	> 100 µM	> 100 µM	> 100 µM	> 100 µM
O=C(c1ccccc1)C1C(C(=O)c2ccccc2)C(c2ccccc2)N(c2ccccc2)C1c1ccccc1 (stereo unspecified)	> 100 µM	> 100 µM	> 100 µM		> 100 µM	> 100 µM	> 100 µM	> 100 µM	> 100 µM	> 100 µM										
COC(=O)C1CC(C(=O)OC)c2nc3cc(C)c(C)cc3nc21 (stereo unspecified)	> 100 µM		> 100 µM	> 100 µM	> 100 µM	> 100 µM	> 100 µM	> 100 µM	> 100 µM	> 100 µM										
C1CC[N-]CC1.CC(=N\O)/C(C)=N/O.CC(=N\O)/C(C)=N/O.[CH2-]CCN1CCOCC1.[Co+2]	> 100 µM	> 100 µM	> 100 µM	> 100 µM	> 100 µM	> 100 µM		> 100 µM	> 100 µM	> 100 µM	> 100 µM	> 100 µM	> 100 µM	> 100 µM	> 100 µM	> 100 µM		> 100 µM	> 100 µM	> 100 µM
OCC(O)C(OC1OC(CO)C(O)C(O)C1O)c1nn(-c2ccccc2)c2nc3cc(Cl)ccc3nc12 (stereo unspecified)	> 100 µM	> 100 µM	> 100 µM	> 100 µM	> 100 µM	> 100 µM	> 100 µM	> 100 µM	> 100 µM											
